Assay results reported in patent US7696166B2, “Use of cyclosporin alkyne/alkene analogues for preventing or treating viral-induced disorders” (Albany Molecular Research, Inc., priority 2006, dated 2010).
Values after ≈ are worked out from the molar mass of the structure shown. “Also recorded” adds a separate entry of the source.

Columns and labels:
HIV-1 = details: literature reports, background; cited from earlier work
hepatitis C virus = details: Paeshuyse et al. 2005; cited from earlier work
cyclophilin A = cyclophilin A (Homo sapiens, UniProt P62937); details: background; cited from earlier work
[1] = test system: concanavalin A-stimulated murine splenocytes; experiment: Concanavalin A (ConA)-stimulated murine splenocyte assay; type: cell-based, BALB/c mice; details: for IC50: novel cyclosporin alkyne analogue, ConA-stimulated murine splenocytes, [3H]thymidine incorporation
Experimental: Male BALB/c mice, at 5 to 7 weeks of age, were sacrificed by CO2 inhalation. Spleens were removed and dissociated by pushing through a nylon cell strainer. The splenocytes were washed in RPMI 1640/5% fetal calf serum (FCS) and pelleted at 400×g. Red blood cells were then lysed by resuspending the cell pellet in ACK lysis buffer (150 mM NH4Cl, 1 mM KHCO3, 0.1 mM EDTA, 3 mL per spleen) for 10 min at room temperature. After pelleting at 400×g, the cells were washed by resuspending in RPMI 1640/5% FCS and repelleting. The cell pellet was resuspended in RPMI 1640/5% FCS and again passed through a cell strainer to remove cell aggregates. The cells were then counted and adjusted to 2×10^6 cells/ml in RPMI 1640/10% FCS/50 μM 2-mercaptoethanol. Cell viability was assessed by Trypan blue staining. Cyclosporin A or the test compound and two micrograms of concanavalin A were added to the wells of a 96 well plate, prior to the addition of 2×10^5 splenocytes. The cells were cultured in a 37° C. CO2 incubator for 2 days and then pulsed with 1 μCi of [^3H]thymidine for 6 hours. Cells were harvested onto filtermats with a TomTec 96 well plate harvester and lysed with H2O. The filtermat and scintillation fluid were sealed in a plastic sleeve. [^3H]thymidine incorporation was measured with a Wallac Trilux plate counter. Initial screens were done at a fixed value of 100 ng/ml test compound. IC50s were calculated from 7 point concentration-response curves using GraphPad software.

[2] = cited from earlier work
calcineurin = details: background; cited from earlier work

Chain of cyclophilin A (P62937 whole entry): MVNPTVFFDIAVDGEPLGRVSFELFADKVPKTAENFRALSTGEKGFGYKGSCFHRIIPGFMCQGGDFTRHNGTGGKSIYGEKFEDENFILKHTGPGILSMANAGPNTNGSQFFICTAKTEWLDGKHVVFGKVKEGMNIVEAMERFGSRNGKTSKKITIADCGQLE

C/C=C/C[C@@H](C)[C@@H](O)[C@H]1C(=O)N[C@@H](CC)C(=O)N(C)[C@H](C)C(=O)N(CC)[C@@H](C(C)C)C(=O)N[C@@H](C(C)C)C(=O)N(C)[C@@H](CC(C)C)C(=O)N[C@@H](C)C(=O)N[C@H](C)C(=O)N(C)[C@@H](CC(C)C)C(=O)N(C)[C@@H](CC(C)C)C(=O)N(C)[C@@H](C(C)C)C(=O)N1C [DEBIO-025]
anti-HIV-1 activity (HIV-1): effective for the treatment of HIV-1 | inhibition of hepatitis C virus replication (hepatitis C virus): potent and selective inhibition | binding affinity for cyclophilin A (cyclophilin A): potent binding affinity

CCC1NC(=O)C(C(O)C(C)CC=CC#CBr)N(C)C(=O)C(C(C)C)N(C)C(=O)C(CC(C)C)N(C)C(=O)C(CC(C)C)N(C)C(=O)C(C)NC(=O)C(C)NC(=O)C(CC(C)C)N(C)C(=O)C(C(C)C)NC(=O)C(CC(C)C)N(C)C(=O)CN(C)C1=O (centres unmarked) [Example 15, cyclosporin alkynyl bromide]
IC50 [1]: 8 ng/mL

CC[C@@H]1NC(=O)[C@H]([C@H](O)[C@H](C)C/C=C/C#CC2CC2)N(C)C(=O)[C@H](C(C)C)N(C)C(=O)[C@H](CC(C)C)N(C)C(=O)[C@H](CC(C)C)N(C)C(=O)[C@@H](C)NC(=O)[C@H](C)NC(=O)[C@H](CC(C)C)N(C)C(=O)[C@H](C(C)C)NC(=O)[C@H](CC(C)C)N(C)C(=O)CN(C)C1=O [Example 33, cyclosporin cyclopropyl alkyne]
potency in immunosuppression compared to cyclosporin A and ISATX247 ([1]; FIG. 1 legend): enhanced or similar potency | IC50 [1]: 9 ng/mL (≈ 7.18 nM)

C/C=C/C[C@@H](C)[C@@H](O)[C@H]1C(=O)N[C@@H](CC)C(=O)N(C)CC(=O)N(C)[C@@H]([C@@H](C)CC)C(=O)N[C@@H](C(C)C)C(=O)N(C)[C@@H](CC(C)C)C(=O)N[C@@H](C)C(=O)N[C@H](C)C(=O)N(C)[C@@H](CC(C)C)C(=O)N(C)[C@@H](CC(C)C)C(=O)N(C)[C@@H](C(C)C)C(=O)N1C [SDZ NIM 811]
immunosuppressive activity ([2]; Mlynar et al. 1997, background): completely devoid of immunosuppressive activity; also recorded: none of the immunosuppressive activity | anti-HIV-1 activity (HIV-1): potent and selective anti-HIV-1 activity | inhibition of calcineurin (calcineurin): does not inhibit

CC#CC[C@@H](C)[C@@H](O)[C@H]1C(=O)N[C@@H](CC)C(=O)N(C)CC(=O)N(C)[C@@H](CC(C)C)C(=O)N[C@@H](C(C)C)C(=O)N(C)[C@@H](CC(C)C)C(=O)N[C@@H](C)C(=O)N[C@H](C)C(=O)N(C)[C@@H](CC(C)C)C(=O)N(C)[C@@H](CC(C)C)C(=O)N(C)[C@@H](C(C)C)C(=O)N1C [known cyclosporin alkyne]
relative immunosuppressive activity compared to cyclosporin A ([2]; Rich et al., J. Med. Chem. 33:999-1009 (1990)): 10%

cyclosporin alkynyl iodide [Example 13]
IC50 [1]: 1 ng/mL
